Data as given in patent publication US9174991B2, “Crystalline form of pemetrexed disodium” (Azad Pharmaceutical Ingredients AG, priority 2009, dated 2015).
Structures can show the parent of a compound that is named as a salt. Where two headings read alike, the source gives them in different places.

How the values were obtained:
[1] = Barnett et al., Organic Process Research & Development, 1999, 3, 184-188; cited from earlier work
[2] = starting material, before storage
Description: HPLC analysis was done on an Agilent 1100 system equipped with DAD detector using a Zorbax SB-Phenyl column (150×4.6 mm, 3 μm). Measurements were done at 230 nm wavelengths at 25° C. using a flow of 1.0 mL/min and 8 min post-run time. As mobile phase water containing 0.03% TFA and acetonitrile containing 0.025% TFA were used, solvents were HPLC grade. Sample preparation: 10 mg sample in 25 mL water:ACN=1:1, 5 uL injection. Retention time Pemetrexed Disodium: 10.3 min.
PXRD: Routine PXRD measurements were carried out on a Bruker AXS D8Advance diffractometer equipped with CuKα source with CuKβ filter and a VANTEC detector (Ser. No.: 202964). Measurement parameters: 3° 2theta to 39.9° 2theta, step time: 2s, step size: 0.022°, T=25° C., X-ray generator: 35 kV/40 mA.

[3] = 70° C., 5 mbar
Description: To investigate the stability of the different forms of Pemetrexed Disodium a stability test concerning storage at different relative humidity, storage in the presence of light and stability under drying conditions was carried out.
Four samples were stored at 70° 5 mbar in laboratory vacuum oven. IPC were taken after 2 d, 9 d
HPLC analysis was done on an Agilent 1100 system equipped with DAD detector using a Zorbax SB-Phenyl column (150×4.6 mm, 3 μm). Measurements were done at 230 nm wavelengths at 25° C. using a flow of 1.0 mL/min and 8 min post-run time. […] Sample preparation: 10 mg sample in 25 mL water:ACN=1:1, 5 uL injection.

[4] = not given; remark: listed apart in the source
[5] = 5% to 12% relative humidity, dark, air, 2 d, measured 11.7% (Form A 5.8%), 23° C.
[6] = 5% to 12% relative humidity, dark, air, 5 d, measured 9.5% (Form A 5.3%), 24° C.
[7] = 5% to 12% relative humidity, dark, air, 9 d, measured 9% (Form A 6%), 24° C.
[8] = 5% to 12% relative humidity, dark, air, 16 d, measured 8.5% (Form A 5.8%), 24° C.
[9] = 27% to 33% relative humidity, dark, air, 2 d, measured 29.8% (Form A 28%), 23° C.
[10] = 27% to 33% relative humidity, dark, air, 5 d, measured 29% (Form A 27%), 24° C.
[11] = 27% to 33% relative humidity, dark, air, 9 d, measured 31% (Form A 30%), 24° C.
[12] = 27% to 33% relative humidity, dark, air, 16 d, measured 30.4% (Form A 28.7%), 24° C.
[13] = 39% to 50% relative humidity, dark, air, 2 d, measured 41.1% (Form A 39%), 23° C.
[14] = 39% to 50% relative humidity, dark, air, 5 d, measured 42.8% (Form A 38.6%), 24° C.
[15] = 39% to 50% relative humidity, dark, air, 9 d, measured 48% (Form A 47%), 24° C.
[16] = 60% to 70% relative humidity, dark, air, 5 d, measured 63% (Form A 57%), 24° C.
[17] = 60% to 70% relative humidity, dark, air, 9 d, measured 69% (Form A 68%), 24° C.
[18] = 60% to 70% relative humidity, dark, air, 16 d, measured 66.9% (Form A 67.2%), 24° C.
[19] = daylight, text says after 16 d, listed as Pemetrexed Disodium Form IV

For `Nc1nc(O)c2c(CCc3ccc(C(=O)N[C@@H](CCC(=O)O)C(=O)O)cc3)c[nH]c2n1` [disodium salt II, disodium N-[4-[2-(2-amino-4,7-dihydro-4-oxo-3H-pyrrolo[2,3-d]-pyrimidin-5-yl)ethyl]benzoyl]-L-glutamic acid salt], the “hygroscopicity (in words)” value [1] is given as “hygroscopic solid”.
With `Nc1nc(O)c2c(CCc3ccc(C(=O)N[C@@H](CCC(=O)O)C(=O)O)cc3)c[nH]c2n1` [Form IV, disodium N-[4-[2-(2-amino-4,7-dihydro-4-oxo-3H-pyrrolo[2,3-d]-pyrimidin-5-yl)ethyl]benzoyl]-L-glutamic acid salt] the “HPLC-purity (10.5 min)” value [2] was 99.85%, the PXRD [2] was “Form IV” and the “HPLC-purity (10.5 min)” value ([3]; 2 d) was 99.70%. The PXRD ([3]; 2 d) was “Form IV”, the “HPLC-purity (10.5 min)” value ([3]; 9 d) was 99.80% and the “change in water content upon vacuum drying (in words)” value ([3]; after 9 d) was “no significant change”. The “change in HPLC-purity upon vacuum drying (in words)” value ([3]; up to 9 d, listed as Pemetrexed Disodium Form IV) was “no significant change”, the “change in water content (in words)” value (5% to 12% rel. humidity (for Form A and Form IV: 7% to 12%), up to 16 d, listed as Pemetrexed Disodium Form IV) was “does not show significant change” and the “H2O (KFT)” value [5] was 1.0%. The “HPLC-purity (10.5 min)” value [5] was 99.66%, the PXRD [5] was “Form IV” and the “HPLC-purity (10.5 min)” value [6] was 99.60%. The PXRD [6] was “Form IV”, the “HPLC-purity (10.5 min)” value [7] was 99.83% and the PXRD [7] was “Form IV”. The HPLC-purity [8] was 99.88%, the PXRD [8] was “Form IV” and the “change in water content (in words)” value (27% to 33% rel. humidity, up to 16 d, listed as Pemetrexed Disodium Form IV) was “does not show significant change”. The HPLC-purity [9] was 99.81%, the PXRD [9] was “Form IV” and the HPLC-purity [10] was 99.73%. For the same compound, the PXRD [10] was “Form IV”, the HPLC-purity [11] was 99.82% and the PXRD [11] was “Form IV”. For the same compound, the HPLC-purity [12] was 99.86%, the PXRD [12] was “Form D” and the HPLC-purity [13] was 99.84%. The PXRD [13] was “Form IV”, the HPLC-purity [14] was 99.78% and the PXRD [14] was “Form IV”. For the same compound, the HPLC-purity [15] was 99.76%, the PXRD [15] was “Form IV” and the PXRD (39% to 50% relative humidity, dark, air, 9 d, measured 48% (Form A 47%), 24° C., listed as Pemetrexed Disodium Form IV) was “without significant change”. For the same compound, the HPLC-purity (39% to 50% relative humidity, dark, air, 16 d, measured 47.3% (Form A 46.4%), 24° C.) was 99.81%, the PXRD (39% to 50% relative humidity, dark, air, 16 d, measured 47.3% (Form A 46.4%), 24° C., listed as Pemetrexed Disodium Form IV) was “traces of Pemetrexed Disodium Heptahydrate” and the “change in water content (in words)” value (40% to 50% rel. humidity, up to 16 d, listed as Pemetrexed Disodium Form IV) was “slight increase”. The “change in water content (in words)” value (60% to 70% rel. humidity, after 2 d) was “significant increase”, the HPLC-purity (60% to 70% relative humidity, dark, air, 2 d, measured 61%, 22° C. (Form A 54%, 23° C)) was 99.83% and the PXRD (60% to 70% relative humidity, dark, air, 2 d, measured 61%, 22° C. (Form A 54%, 23° C), listed as Pemetrexed Disodium Form IV) was “partial transformation to Pemetrexed Disodium Heptahydrate”. The HPLC-purity [16] was 99.75%, the PXRD [16] was “Heptahydrate” and the PXRD (60% to 70% relative humidity, dark, air, 5 d, measured 63% (Form A 57%), 24° C., listed as Pemetrexed Disodium Form IV) was “Transformation to Pemetrexed Disodium Heptahydrate is complete”. For the same compound, the HPLC-purity [17] was 99.85%, the PXRD [17] was “Heptahydrate” and the HPLC-purity [18] was 99.81%. For the same compound, the PXRD [18] was “Heptahydrate”, the “change in HPLC purity in any of the samples (in words)” value (all relative humidities tested (5% to 70%), up to 16 d) was “No significant change” and the HPLC-purity ([4]; daylight study, Start) was 99.83%. For the same compound, the “change in HPLC purity in the presence of light (in words)” value [4, 19] was “slight decrease”, the “change in color in the presence of light (in words)” value [4, 19] was “without significant change” and the HPLC-purity ([4]; double PE plastic bags, daylight, 20° C. to 25° C., 15 d) was 99.44%.
